Data reported in patent US6348627B1 (priority 1999, dated 2002).

Key:
Sphaerotheca fulginea = settings: 150 grams per hectare; cucumber cultivar Bush Champion; scored seven days after inoculation
[1] = system: Colletotrichum lagenarium; settings: 150 grams per hectare; cucumber cultivar Bush Champion
[2] = system: Puccinia recondita (f sp. tritici); settings: 150 grams per hectare; wheat cultivar Fielder; evaluated after 12 days
[3] = system: Pseudoperonospora cubensis; settings: 9 grams per hectare; detached cucumber leaf; five days

SMILES	percent disease control, cucumber powdery mildew (Sphaerotheca fulginea)	percent disease control, cucumber anthracnose [1]	percent disease control, wheat leaf rust [2]	percent disease control, cucumber downy mildew [3]
CON=C(C(=O)OC)c1ccccc1CON=C(C)C1CC1c1c(Cl)cccc1Cl (stereo not drawn) [Compound 8.1, Methyl 2-[2-((trans-1-(2-(2′,6′-dichlorophenyl)cyclopropyl)ethylidene)aminooxymethyl)phenyl]-2-methoxyiminoacetate]	100%	–	–	–
CNC(=O)C(=NOC)c1ccccc1CON=C(C)C1CC1c1c(F)cccc1F (stereo not drawn) [Compound 9.7A, N-Methyl 2-[2-((trans-1-(2-(2′,6′-difluorophenyl)cyclopropyl)ethylidene)aminooxymethyl)phenyl]-2-methoxyiminoacetamide]	100%	100%	100%	100%
CNC(=O)C(=NOC)c1ccccc1CON=C(C)C1CC1(C)c1ccccc1 (stereo not drawn) [Compound 3.11, (E,E and Z,E)-N-Methyl 2-[2-((trans-1-(2-phenyl-2-methyl-cyclopropyl)ethylidene)aminooxymethyl)phenyl]-2-methoxyiminoacetamide]	100%	100%	100%	–
CNC(=O)/C(=N/OC)c1ccccc1CO/N=C(\C)C1CC1(C)c1ccc(Cl)cc1 (centres unmarked) [Compound 3.14A, (E,E)-N-Methyl 2-[2-((1-(2-(4′-chlorophenyl)-2-methylcyclopropyl)ethylidene)aminooxymethyl)phenyl]-2-methoxyiminoacetamide]	100%	100%	100%	–
CNC(=O)C(=NOC)c1ccccc1CON=C(C)C1CC1c1c(Cl)cccc1Cl (stereo not drawn) [Compound 9.1, N-Methyl 2-[2-((trans-1-(2-(2′,6′-dichlorophenyl)cyclopropyl)ethylidene)aminooxymethyl)phenyl]-2-methoxyiminoacetamide]	100%	100%	100%	–
